# Assay results taken from patent US10597388B2, “Pyridazinone herbicides” (FMC CORPORATION, priority 2014, dated 2020).
# Legend:
# Assay in all cases: Test C greenhouse herbicide test, pre- and postemergence
# Format in all cases: in vivo
# [1] = system: barnyardgrass (Echinochloa crus-galli)
# Procedure, shortened: (§1)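 Greenhouse pots; pre-em on seeded loam:sand blend, post-em on 2–18 cm plants (1–4 leaf) in sphagnum peat/vermiculite medium. Formulation: non-phytotoxic solvent + surfactant. Read-out: visual % control (0–100) vs controls at 13–15 d.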
# [2] = system: blackgrass (Alopecurus myosuroides)
# Procedure, shortened: as §1
# [3] = system: corn (Zea mays)
# Procedure, shortened: as §1
# [4] = system: crabgrass, large (large crabgrass, Digitaria sanguinalis)
# Procedure, shortened: as §1
# [5] = system: foxtail, giant (giant foxtail, Setaria faberii)
# Procedure, shortened: as §1
# [6] = system: galium (catchweed bedstraw, Galium aparine)
# Procedure, shortened: as §1
# [7] = system: johnsongrass (Sorghum halepense)
# Procedure, shortened: as §1
# [8] = system: lambsquarters (Chenopodium album)
# Procedure, shortened: as §1
# [9] = system: morningglory (Ipomoea coccinea)
# Procedure, shortened: as §1
# [10] = system: nutsedge, yellow (yellow nutsedge, Cyperus esculentus)
# Procedure, shortened: as §1
# [11] = system: oilseed rape (Brassica napus)
# Procedure, shortened: as §1
# [12] = system: pigweed (Amaranthus retroflexus)
# Procedure, shortened: as §1
# [13] = system: ragweed (common ragweed, Ambrosia elatior)
# Procedure, shortened: as §1
# [14] = system: ryegrass, Italian (Italian ryegrass, Lolium multiflorum)
# Procedure, shortened: as §1
# [15] = system: velvetleaf (Abutilon theophrasti)
# Procedure, shortened: as §1
# [16] = system: waterhemp (common waterhemp, Amaranthus rudis)
# Procedure, shortened: as §1
# [17] = Postemergence, 31 g ai/ha, 0 to 100 scale (0 no effect, 100 complete control)
# [18] = Postemergence, 125 g ai/ha, scale 0 to 100, 0 is no effect, 100 is complete control
# [19] = Postemergence, 250 g ai/ha, scale 0 to 100, 0 no effect, 100 complete control, 13 to 15 d
# [20] = Preemergence, 31 g ai/ha, scale 0 to 100, 0 is no effect, 100 is complete control
# [21] = Preemergence, 62 g ai/ha, scale 0 to 100, 0 is no effect, 100 is complete control
# [22] = Preemergence, 125 g ai/ha, scale 0 to 100, 0 is no effect, 100 is complete control
# [23] = Preemergence, 250 g ai/ha, scale 0 to 100 (0 no effect, 100 complete control)
# [24] = postemergence, 62 g ai/ha, scale 0 to 100, 0 no effect, 100 complete control
smiles,measurement,setting,value
CCC(=O)Oc1c(C)nn(C)c(=O)c1-c1c(C)sc2c(C)cc(C)cc12 [Compound 28],Barnyardgrass plant response rating,[1]; [17],20
same,"Plant response rating, Barnyardgrass",[1]; [18],35
same,"Plant response rating, Barnyardgrass",[1]; [19],40
same,"Plant response rating, Barnyardgrass",[1]; [20],45
same,"Plant response rating, Barnyardgrass",[1]; [21],75
same,"Plant response rating, Barnyardgrass",[1]; [22],90
same,Barnyardgrass plant response rating,[1]; [23],95
same,Barnyardgrass plant response rating,[1]; [24],25
same,Blackgrass plant response rating,[2]; [17],50
same,"Plant response rating, Blackgrass",[2]; [18],80
same,"Plant response rating, Blackgrass",[2]; [19],90
same,"Plant response rating, Blackgrass",[2]; [20],85
same,"Plant response rating, Blackgrass",[2]; [21],90
same,"Plant response rating, Blackgrass",[2]; [22],90
same,Blackgrass plant response rating,[2]; [23],90
same,Blackgrass plant response rating,[2]; [24],70
same,Corn plant response rating,[3]; [17],5
same,"Plant response rating, Corn",[3]; [18],5
same,"Plant response rating, Corn",[3]; [19],15
same,"Plant response rating, Corn",[3]; [20],0
same,"Plant response rating, Corn",[3]; [21],0
same,"Plant response rating, Corn",[3]; [22],30
same,Corn plant response rating,[3]; [23],15
same,Corn plant response rating,[3]; [24],5
same,"Crabgrass, Large plant response rating",[4]; [17],25
same,"Plant response rating, Crabgrass, Large",[4]; [18],40
same,"Plant response rating, Crabgrass, Large",[4]; [19],45
same,"Plant response rating, Crabgrass, Large",[4]; [20],25
same,"Plant response rating, Crabgrass, Large",[4]; [21],60
same,"Plant response rating, Crabgrass, Large",[4]; [22],80
same,"Crabgrass, Large plant response rating",[4]; [23],85
same,"Crabgrass, Large plant response rating",[4]; [24],20
same,"Foxtail, Giant plant response rating",[5]; [17],60
same,"Plant response rating, Foxtail, Giant",[5]; [18],85
same,"Plant response rating, Foxtail, Giant",[5]; [19],95
same,"Plant response rating, Foxtail, Giant",[5]; [20],85
same,"Plant response rating, Foxtail, Giant",[5]; [21],100
same,"Plant response rating, Foxtail, Giant",[5]; [22],100
same,"Foxtail, Giant plant response rating",[5]; [23],100
same,"Foxtail, Giant plant response rating",[5]; [24],80
same,Galium plant response rating,[6]; [17],100
same,"Plant response rating, Galium",[6]; [18],100
same,"Plant response rating, Galium",[6]; [19],100
same,"Plant response rating, Galium",[6]; [20],95
same,"Plant response rating, Galium",[6]; [21],95
same,"Plant response rating, Galium",[6]; [22],95
same,Galium plant response rating,[6]; [23],95
same,Galium plant response rating,[6]; [24],100
same,Johnsongrass plant response rating,[7]; [17],5
same,"Plant response rating, Johnsongrass",[7]; [19],30
same,"Plant response rating, Johnsongrass",[7]; [20],0
same,"Plant response rating, Johnsongrass",[7]; [21],0
same,"Plant response rating, Johnsongrass",[7]; [22],5
same,Johnsongrass plant response rating,[7]; [23],10
same,Johnsongrass plant response rating,[7]; [24],5
same,Lambsquarters plant response rating,[8]; [17],85
same,"Plant response rating, Lambsquarters",[8]; [18],100
same,"Plant response rating, Lambsquarters",[8]; [19],100
same,"Plant response rating, Lambsquarters",[8]; [20],65
same,"Plant response rating, Lambsquarters",[8]; [21],85
same,"Plant response rating, Lambsquarters",[8]; [22],85
same,Lambsquarters plant response rating,[8]; [23],90
same,Lambsquarters plant response rating,[8]; [24],98
same,Morningglory plant response rating,[9]; [17],95
same,"Plant response rating, Morningglory",[9]; [18],100
same,"Plant response rating, Morningglory",[9]; [19],100
same,"Plant response rating, Morningglory",[9]; [20],80
same,"Plant response rating, Morningglory",[9]; [21],98
same,"Plant response rating, Morningglory",[9]; [22],98
same,Morningglory plant response rating,[9]; [23],100
same,Morningglory plant response rating,[9]; [24],98
same,"Nutsedge, Yellow plant response rating",[10]; [17],75
same,"Plant response rating, Nutsedge, Yellow",[10]; [18],85
same,"Plant response rating, Nutsedge, Yellow",[10]; [19],90
same,"Plant response rating, Nutsedge, Yellow",[10]; [20],50
same,"Plant response rating, Nutsedge, Yellow",[10]; [21],75
same,"Plant response rating, Nutsedge, Yellow",[10]; [22],85
same,"Nutsedge, Yellow plant response rating",[10]; [23],70
same,"Nutsedge, Yellow plant response rating",[10]; [24],85
same,Oilseed Rape plant response rating,[11]; [17],5
same,"Plant response rating, Oilseed Rape",[11]; [18],5
same,"Plant response rating, Oilseed Rape",[11]; [19],70
same,"Plant response rating, Oilseed Rape",[11]; [20],0
same,"Plant response rating, Oilseed Rape",[11]; [21],20
same,"Plant response rating, Oilseed Rape",[11]; [22],85
same,Oilseed Rape plant response rating,[11]; [23],90
same,Oilseed Rape plant response rating,[11]; [24],60
same,Pigweed plant response rating,[12]; [17],60
same,"Plant response rating, Pigweed",[12]; [18],90
same,"Plant response rating, Pigweed",[12]; [19],90
same,"Plant response rating, Pigweed",[12]; [20],100
same,"Plant response rating, Pigweed",[12]; [21],100
same,"Plant response rating, Pigweed",[12]; [22],100
same,Pigweed plant response rating,[12]; [23],100
same,Pigweed plant response rating,[12]; [24],85
same,Ragweed plant response rating,[13]; [17],65
same,"Plant response rating, Ragweed",[13]; [18],85
same,"Plant response rating, Ragweed",[13]; [19],90
same,"Plant response rating, Ragweed",[13]; [20],70
same,"Plant response rating, Ragweed",[13]; [21],90
same,"Plant response rating, Ragweed",[13]; [22],95
same,Ragweed plant response rating,[13]; [23],90
same,Ragweed plant response rating,[13]; [24],75
same,"Ryegrass, Italian plant response rating",[14]; [17],80
same,"Plant response rating, Ryegrass, Italian",[14]; [18],90
same,"Plant response rating, Ryegrass, Italian",[14]; [19],95
same,"Plant response rating, Ryegrass, Italian",[14]; [20],85
same,"Plant response rating, Ryegrass, Italian",[14]; [21],90
same,"Plant response rating, Ryegrass, Italian",[14]; [22],95
same,"Ryegrass, Italian plant response rating",[14]; [23],95
same,"Ryegrass, Italian plant response rating",[14]; [24],85
same,Velvetleaf plant response rating,[15]; [17],70
same,"Plant response rating, Velvetleaf",[15]; [18],85
same,"Plant response rating, Velvetleaf",[15]; [19],90
same,"Plant response rating, Velvetleaf",[15]; [21],85
same,"Plant response rating, Velvetleaf",[15]; [22],90
same,Velvetleaf plant response rating,[15]; [23],95
same,Velvetleaf plant response rating,[15]; [24],85
same,Waterhemp plant response rating,[16]; [17],60
same,"Plant response rating, Waterhemp",[16]; [18],85
same,"Plant response rating, Waterhemp",[16]; [19],85
same,"Plant response rating, Waterhemp",[16]; [21],75
same,"Plant response rating, Waterhemp",[16]; [22],85
same,Waterhemp plant response rating,[16]; [23],100
same,Waterhemp plant response rating,[16]; [24],75
